Measured values from patent US20230107538A1, “CYCLOALKYL-CONTAINING CARBOXYLIC ACIDS AND USES THEREOF” (LIMINAL BIOSCIENCES LIMITED, priority 2019, published 2023).

Assays:
[1] = target: T1, human PPARα ligand binding domain (LBD) (Homo sapiens, UniProt Q07869); assay: Cell-based GAL4 PPAR transactivation assay in HEK293 cells, PPARα; details: 24 h
T1 construct: human PPARα (S167-Y468); expressed in transfected cells; host or cells: HEK293
T1 sequence (Q07869 167-468): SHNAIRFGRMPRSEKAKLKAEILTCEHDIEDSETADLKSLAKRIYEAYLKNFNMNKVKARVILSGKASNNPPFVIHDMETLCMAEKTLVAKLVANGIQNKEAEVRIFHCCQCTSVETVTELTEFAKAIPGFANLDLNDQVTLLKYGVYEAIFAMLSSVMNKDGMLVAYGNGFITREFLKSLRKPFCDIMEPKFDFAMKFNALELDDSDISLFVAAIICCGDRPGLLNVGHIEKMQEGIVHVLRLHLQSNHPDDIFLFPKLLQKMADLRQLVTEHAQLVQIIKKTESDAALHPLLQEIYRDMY
Description: (§1) The peroxisome proliferator-activated receptors (PPARs), PPARα, PPARδ, and PPARγ are ligand-dependent transcription factors that control expression of several key metabolism-associated genes. The transcriptional activity of representative compounds of formula I to these receptors was assessed using a cell-based GAL4 transactivation assay in HEK293 cells transfected with either PPARα, PPARδ, or PPARγ ligand binding domain (LBD), and was compared to that of the full control agonists GW7647 (PPARα), GW0742 (PPARδ), and rosiglitazone (PPARγ).
(§2) Plasmids: The hinge region and ligand binding domain (LBD) from human PPARα (S167-Y468), PPARδ (S139-Y440) and PPARγ (S176-Y477) were PCR-amplified from a PPARα cDNA clone (cDNA Resource Center, http://www.cdna.org) or from PPARδ1 and PPARγ1 LBD gBlocks™ gene fragments (Integrated DNA Technologies). The PPAR LBD PCR products were inserted in frame with the GAL4 DNA binding domain in the pFN26A(BIND)-hRlu-neo Flexi vector (Promega) at SgfI and PmeI sites to generate GAL4-PPAR-Rluc.
(§3) Cell-based PPAR transactivation assay. HEK293 cells were co-transfected with pGL4.35[luc2P/9XGAL4UAS/Hygro] (Promega) and GAL4-PPAR-Rluc plasmids, and after 24 h of incubation were treated with compounds for 24 h. Luciferase activity was determined with the Dual Glo™ luciferase assay (Promega). Firefly luminescence was normalized to the constitutively expressed Renilla luminescence, and results expressed as fold induction of vehicle control or percentage of reference agonist maximal activity.

[2] = target: T2, human PPARδ ligand binding domain (LBD) (Homo sapiens, UniProt Q03181); assay: Cell-based GAL4 PPAR transactivation assay in HEK293 cells, PPARδ; details: 24 h
T2 construct: PPARδ (S139-Y440); host or cells: HEK293
T2 sequence (Q03181 139-441 limits assumed): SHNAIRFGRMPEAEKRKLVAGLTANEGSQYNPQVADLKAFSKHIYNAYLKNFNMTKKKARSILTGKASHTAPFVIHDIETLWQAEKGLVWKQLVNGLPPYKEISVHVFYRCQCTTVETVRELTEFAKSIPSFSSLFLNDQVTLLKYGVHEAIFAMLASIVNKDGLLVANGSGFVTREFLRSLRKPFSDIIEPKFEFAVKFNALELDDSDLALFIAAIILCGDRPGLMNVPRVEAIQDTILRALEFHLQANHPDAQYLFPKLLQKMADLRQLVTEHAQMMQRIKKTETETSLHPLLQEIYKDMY
Description: as §1, §2, §3

[3] = target: T3, human PPARγ ligand binding domain (LBD) (Homo sapiens, UniProt P37231); assay: Cell-based GAL4 PPAR transactivation assay in HEK293 cells, PPARγ; details: 24 h
T3 construct: PPARγ (S176-Y477); host or cells: HEK293
T3 sequence (P37231 176-477 isoform P37231-2): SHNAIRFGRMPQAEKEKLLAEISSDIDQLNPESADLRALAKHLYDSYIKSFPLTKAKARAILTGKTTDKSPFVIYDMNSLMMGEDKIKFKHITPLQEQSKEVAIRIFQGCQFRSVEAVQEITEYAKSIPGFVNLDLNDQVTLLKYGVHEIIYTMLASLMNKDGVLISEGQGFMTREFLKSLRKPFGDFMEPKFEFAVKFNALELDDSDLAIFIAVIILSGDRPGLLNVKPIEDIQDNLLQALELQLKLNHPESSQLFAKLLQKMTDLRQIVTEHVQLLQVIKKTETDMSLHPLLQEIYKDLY
Description: as §1, §2, §3

melting point | PPARα (GAL4 reporter) % efficacity relative to GW7647 [1] | PPARδ (GAL4 reporter) % efficacity relative to GW0742 [2] | PPARγ (GAL4 reporter) % efficacity relative to rosiglitazone [3] | Structure (SMILES)
108 to 111 °C |  |  |  | CCCCCCC1C(CC(=O)[O-])C1(Br)Br.[Na+] (stereo not shown) [Compound II, Sodium 2-(2,2-dibromo-3-hexylcyclopropyl)acetate]
 | 33% | −6% | 4% | CCCCCCC1C(CC(=O)[O-])C1(C)C.[Na+] (stereo not shown) [drawing 323]
 | 43% | 5% | 5% | CC1(C)CC1CCCCC1CC1C(=O)[O-].[Na+] (stereo not shown)
 | 90% | 4% | 16% | CCCCCCCC1CC1C(=O)[O-].[Na+] (stereo not shown)
